The conditions of data set [1]: aqueous buffer.
Experimental: (§1) The stabilities of prodrugs were evaluated in one or more in vitro systems using a variety of tissue preparations following methods known in the art. The chemical stability of prodrugs in aqueous buffers at pH's of 2.0, 7.4 and 8.0 were also measured. […] Each preparation was incubated with test compound at 37°C for one hour. Aliquots (50 µL) were removed at 0, 30, and 60 min and quenched with 0.1 % trifluoroacetic acid in acetonitrile.
For data set [2] the following is noted: human, s9, 1 h, 5 µM.
Experimental: For stability studies, prodrug (5 µM) was incubated in Caco-2 homogenate S9 fraction (0.5 mg protein per mL) for 60 min at 37°C. Concentrations of intact prodrug and released baclofen were determined at zero time and 60 minutes using LC/MS/MS.
For data set [3] the following is noted: rat, 2 µM.
Experimental: as §1
The conditions of data set [4]: human, 2 µM.
Experimental: as §1
For data set [5] the following is noted: rat, plasma, 2 µM.
Experimental: as §1
For data set [6] the following is noted: human, plasma, 2 µM.
Experimental: as §1
Another data set has as its system Pancreatin. The data set can be described thus: Pancreatin stability. The class given is in vitro ADME, porcine. The conditions noted are these: 5 µM. The method, then:
Pancreatin Stability: Stability studies were conducted by incubating prodrug (5 µM) with 1 % (w/v) pancreatin (Sigma, P-1625, from porcine pancreas) in 0.025 M Tris buffer containing 0.5 M NaCl (pH 7.5) at 37 °C for 60 min. The reaction was stopped by addition of 2 volumes of methanol. After centrifugation at 14,000 rpm for 10 min, the supernatant was removed and analyzed by LC/MS/MS.

Where [7] appears, read: 1 % (w/v) pancreatin, pH 7.5, 37 °C, after 60 min.

Like-named read-outs stand apart in the source and are kept apart here.

Turning to `CC(C)C(=O)O[C@H](C)OC(=O)NC[C@H](CC(=O)[O-])c1ccc(Cl)cc1.[Na+]` [(34), Sodium 4-{[(1S)-Isobutanoyloxyethoxy]-carbonylamino}-(3R)-(4-chlorophenyl) -butanoate], the “% of Baclofen Released” value was 0% in data set [1] (1 h, pH 2); 0% in data set [1] (1 h, pH 7.4); 0% in data set [1] (1 h, pH 8); 100% in data set [2]; 100% in data set [3] (s9, 1 h); 100% in data set [4] (s9, 1 h). The “% of Baclofen Released” value stood at 18% in data set [5] (1 h), 2% in data set [6] (1 h) and 18% with Pancreatin (setting [7]). In addition, the “% of Prodrug Remaining” value turned out to be 100% in data set [1] (1 h, pH 2); 100% in data set [1] (1 h, pH 7.4); 100% in data set [1] (1 h, pH 8); 2% in data set [2]; 1% in data set [3] (s9, 1 h); 3% in data set [4] (s9, 1 h). Also, the “% of Prodrug Remaining” value in data set [5] (1 h) amounted to 78%; in data set [6] (1 h), 90%; with Pancreatin (setting [7]), 81%.
In the case of `CC(C)C(=O)O[C@H](OC(=O)NC[C@H](CC(=O)[O-])c1ccc(Cl)cc1)C(C)C.[Na+]` [(100), Sodium 4-{[(1R)-Isobutanoyloxyisobutoxy]carbonylamino}-(3R)-(4-chlorophenyl) -butanoate], the “% of Baclofen Released” value in data set [1] (1 h, pH 2) was 0%; in data set [1] (1 h, pH 7.4), 0%; in data set [1] (1 h, pH 8), 0%; in data set [2] it was 90%; in data set [3] (s9, 1 h) it was 85%; in data set [4] (s9, 1 h), 83%. In addition, the “% of Baclofen Released” value came out at 64% in data set [5] (1 h), 3% in data set [6] (1 h) and 27% in the data set with Pancreatin (setting [7]). In addition, the “% of Prodrug Remaining” value in data set [1] (1 h, pH 2) is 101%; in data set [1] (1 h, pH 7.4) it was 98%; in data set [1] (1 h, pH 8), 95%; in data set [2] it was 7%; in data set [3] (s9, 1 h) it was 3%; in data set [4] (s9, 1 h), 1%. The “% of Prodrug Remaining” value in data set [5] (1 h) came out at 9%; in data set [6] (1 h) it was 89%; in the data set on Pancreatin (setting [7]), 68%.
Consider “Sodium 4-[(1-Benzoyloxgyethoxy)carbonylaminol-(3R)-(4-chlorophenyl)-butanoate [(40)]”, for which the “% of Baclofen Released” value was 103/0% in data set [1] (pH 2, 60 min); 100/0% in data set [1] (pH 7.4, 60 min); 107/2% in data set [1] (pH 8, 60 min); 15/85% in data set [2]; 8/96% in data set [3] (s9, 60 min); 1/105% in data set [4] (s9, 60 min). For the same compound, the “% of Baclofen Released” value is listed as 72/17% in data set [5] (60 min); 101/2% in data set [6] (60 min); 43/58% in the data set with Pancreatin (pig, pancreatin, 1 h, pH 7.5). The “% of Prodrug Remaining” value in data set [1] (pH 2, 60 min) is 103/0%; in data set [1] (pH 7.4, 60 min), 100/0%; in data set [1] (pH 8, 60 min), 107/2%; in data set [2] it was 15/85%; in data set [3] (s9, 60 min) it was 8/96%; in data set [4] (s9, 60 min), 1/105%. The “% of Prodrug Remaining” value in data set [5] (60 min) is given as 72/17%; in data set [6] (60 min) it was 101/2%; with Pancreatin (pig, pancreatin, 1 h, pH 7.5), 43/58%.

These data come from patent EP1660440B1, “ACYLOXYALKYL CARBAMATE PRODRUGS, METHODS OF SYNTHESIS AND USE” (priority 2003, dated 2005).
